Test results: patent US20250367173A1, “ECTONUCLEOTIDE PYROPHOSPHATASE-PHOSPHODIESTERASE-1 INHIBITORS AND PHARMACEUTICAL COMPOSITIONS COMPRISING THE SAME” (LigaChem Biosciences Inc., priority 2022, published 2025)

Experiments:
ENPP-1 [1] = target: T1, ENPP-1 (Homo sapiens, UniProt P22413); experiment: ENPP-1 enzyme assay with pNP-TMP substrate; assay type: biochemical; details: 12.5 ng ENPP-1, 720 μM substrate pNP-TMP, pH 9.0, 37° C., 60 minutes, absorbance 405 nm; average IC50
T1 construct: purchased Biovendor RD172124100
T1 sequence (P22413 1-925): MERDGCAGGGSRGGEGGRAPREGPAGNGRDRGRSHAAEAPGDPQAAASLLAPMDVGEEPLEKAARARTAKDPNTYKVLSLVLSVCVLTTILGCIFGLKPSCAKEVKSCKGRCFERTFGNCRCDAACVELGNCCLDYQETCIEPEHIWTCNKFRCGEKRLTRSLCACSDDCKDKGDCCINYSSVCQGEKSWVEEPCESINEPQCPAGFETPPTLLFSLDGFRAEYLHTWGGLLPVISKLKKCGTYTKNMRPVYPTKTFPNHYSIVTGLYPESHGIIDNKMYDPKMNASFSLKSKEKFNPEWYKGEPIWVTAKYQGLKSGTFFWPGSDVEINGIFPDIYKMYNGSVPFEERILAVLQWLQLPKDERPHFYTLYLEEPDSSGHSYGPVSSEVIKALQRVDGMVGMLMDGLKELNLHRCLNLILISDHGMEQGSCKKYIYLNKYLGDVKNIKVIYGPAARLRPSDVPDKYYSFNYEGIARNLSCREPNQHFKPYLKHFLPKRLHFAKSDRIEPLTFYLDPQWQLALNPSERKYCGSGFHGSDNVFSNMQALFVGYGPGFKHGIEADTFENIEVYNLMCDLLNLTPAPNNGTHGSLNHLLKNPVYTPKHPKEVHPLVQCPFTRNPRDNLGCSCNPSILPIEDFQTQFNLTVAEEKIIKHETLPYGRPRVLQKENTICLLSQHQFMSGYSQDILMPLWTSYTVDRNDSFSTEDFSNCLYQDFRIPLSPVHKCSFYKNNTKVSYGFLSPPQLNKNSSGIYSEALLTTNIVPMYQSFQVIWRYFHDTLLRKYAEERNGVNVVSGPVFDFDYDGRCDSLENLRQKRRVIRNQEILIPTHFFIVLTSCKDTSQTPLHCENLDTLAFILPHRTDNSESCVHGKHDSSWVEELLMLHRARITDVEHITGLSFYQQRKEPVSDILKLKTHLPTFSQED
Method: In order to measure the ENPP-1 inhibitory activity of the compounds according to the present disclosure, the following tests were performed.
ENPP-1 hydrolyzes a variety of substrates, including phosphodiester bonds of nucleotides and nucleotide sugars and pyrophosphate bonds of nucleotides and nucleotide sugars. p-Nitrophenyl 5′-thymidine monophosphate (p-Nph-5′-TMP) is an artificial substrate for 5′-adenosine monophosphate (AMP), which is hydrolyzed by the human recombinant ENPP-1 enzyme. In the above reaction, ENPP-1 enzymatic activity is monitored through the formation of yellow p-nitrophenolate, which absorbs at 405 nm.
First, the reaction mixture contains 100 mM Tris-HCl (pH 9.0), 150 mM NaCl, […], and 1% DMSO. Serially diluted ENPP-1 inhibitors (test compound concentrations ranging from 10 μM to 0.5 nM) are reacted with 12.5 ng of ENPP-1 (Biovendor, catalog number RD172124100) and 720 μM substrate pNP-TMP at 37° C. for 60 minutes. All assays include a DMSO control without ENPP-1 inhibitor that gives maximum absorbance.
(§1) After 60 minutes of this reaction, the […] is measured using an Epoch™ Microplate Spectrophotometer (BioTek Instruments Inc.). Inhibition (%) is calculated using the following formula: Sample OD405 nm/Max OD405 nm×100%. % residual ENPP-1 enzyme activity versus IC50 values for ENPP-1 inhibitor concentrations were determined by fitting inhibition curves using the 4-parameter method of GraphPad Prism® software [GraphPad version 9.3.1 for Windows, GraphPad Software, La Jolla California USA, www.graphpad.com].

ENPP-1 [2] = target: T1, ENPP-1; experiment: ENPP-1 enzyme assay with cGAMP substrate; assay type: biochemical; details: 200 pM ENPP-1, 10 μM substrate 2′3′-cGAMP, pH 7.4, 37° C., 30 minutes, Transcreener AMP2/GMP2 kit; average IC50
Method: 2′3′-cGAMP is a natural substrate specifically hydrolyzed by ENPP-1, and produces 5′-adenosine monophosphate (AMP) and 5′-guanosine monophosphate (GMP). AMP and GMP produced from the reaction are monitored for ENPP-1 enzyme activity through an AMP^2/GMP^2 ENPP-1 Assay kit (Bellbrook Labs, catalog number 3015).
First, the reaction mixture contains 25 mM Tris-HCl (pH 7.4), 5 mM MgCl2, 0.01% Brij-35, and 1% DMSO. Serially diluted ENPP-1 inhibitors (test compound concentrations ranging from 10 μM to 0.5 nM) are reacted with 200 pM ENPP-1 (Biovendor, catalog number RD172124100) and 10 μM substrate 2′3′-cGAMP at 37° C. for 30 minutes. All assays include a DMSO control without ENPP-1 inhibitor that provides maximal AMP and GMP production. After 30 minutes of this reaction, AMP and GMP production is detected as a measure of ENPP-1 enzymatic activity using the Transcreener® AMP^2/GMP^2 ENPP-1 Assay kit. The detection reagent is a reagent containing 16 nM AMP^2/GMP^2 Antibody-Tb, 25 mM Tris-HCl and 60.1 nM AMP/GMP HiLyte647 Tracer, which is added by 5 μl, mixed well, and incubated at 25° C. for 2 hours.
as §1, with “The” for “After 60 minutes of this reaction, the”, “a SPARK Cyto plate reader (Tecan).” for “an Epoch™ Microplate Spectrophotometer (BioTek Instruments Inc.).”, “(Max 615:665 ratio-615:665 ratio)/Max 615:665 ratio×100%.” for “Sample OD405 nm/Max OD405 nm×100%.”

Row | SMILES | IC50 (ENPP-1 [1]) [µM] | IC50 (ENPP-1 [2]) [µM]
1 | COc1ccc2c(c1)c1ncccc1n2Cc1ccc(S(C)(=N)=O)cc1 (single isomer, unassigned) [Compound 10a, imino (4-((8-methoxy-5H-pyrido[3,2-b]indol-5-yl)methyl)phenyl)(methyl)-l6-sulfanone] | < 1 | < 1
2 | COc1ccc2c(c1)c1ncccc1n2Cc1ccc(S(C)(=N)=O)cc1 (single isomer, unassigned) [Compound 10b, imino (4-((8-methoxy-5H-pyrido[3,2-b]indol-5-yl)methyl)phenyl)(methyl)-l6-sulfanone] | < 1 | 
3 | COc1cc2c3ncccc3n(Cc3ccc(S(C)(=N)=O)cc3)c2cc1F (single isomer, unassigned) [Compound 30a, (4-((7-fluoro-8-methoxy-5H-pyrido[3,2-b]indol-5-yl)methyl)phenyl)(imino)(methyl)-l6-sulfanone] | < 1 | < 1
4 | COc1cc2c3ncccc3n(Cc3ccc(S(C)(=N)=O)cc3)c2cc1F (single isomer, unassigned) [Compound 30b, (4-((7-fluoro-8-methoxy-5H-pyrido[3,2-b]indol-5-yl)methyl)phenyl)(imino)(methyl)-l6-sulfanone] | < 1 | 
5 | COc1cc2c3ncccc3n(Cc3ccc(S(=N)(=O)C4CC4)cc3)c2cc1F (single isomer, unassigned) [Compound 56a, cyclopropyl (4-((7-fluoro-8-methoxy-5H-pyrido[3,2-b]indol-5-yl)methyl)phenyl) (imino)-l6-sulfanone] | < 1 | 
6 | COc1cc2c3ncccc3n(Cc3ccc(S(=N)(=O)C4CC4)cc3)c2cc1F (single isomer, unassigned) [Compound 56b, cyclopropyl (4-((7-fluoro-8-methoxy-5H-pyrido[3,2-b]indol-5-yl)methyl)phenyl) (imino)-l6-sulfanone] |  | < 1
7 | CS(=N)(=O)c1ccc(Cn2c3ccccc3c3ccncc32)cc1 (stereo not drawn) [Compound 1, (4-((9H-pyrido[3,4-b]indol-9-yl)methyl)phenyl)(imino)(methyl)-l6-sulfanone] | < 1 | 1 to 10
8 | COc1ccc2c(c1)c1ccncc1n2Cc1ccc(S(N)(=O)=O)cc1 [Compound 2, 4-((6-methoxy-9H-pyrido[3,4-b]indol-9-yl)methyl)benzenesulfonamide] | < 1 | < 1
9 | COc1ccc2c(c1)c1ccncc1n2Cc1ccc(S(C)(=N)=O)cc1 (stereo not drawn) [Compound 3, imino (4-((6-methoxy-9H-pyrido[3,4-b]indol-9-yl)methyl)phenyl)(methyl)-l6-sulfanone] | < 1 | < 1
10 | COc1ccc2c(c1)c1cnccc1n2Cc1ccc(S(N)(=O)=O)cc1 [Compound 4, 4-((8-methoxy-5H-pyrido[4,3-b]indol-5-yl)methyl)benzenesulfonamide] | < 1 | < 1
11 | COc1ccc2c(c1)c1ncccc1n2Cc1ccc(S(N)(=O)=O)cc1 [Compound 5, 4-((8-methoxy-5H-pyrido[3,2-b]indol-5-yl)methyl)benzenesulfonamide] | < 1 | < 1
12 | COc1ccc2c(c1)c1ncccc1n2CC1CCN(S(N)(=O)=O)CC1 [Compound 6, 4-((8-methoxy-5H-pyrido[3,2-b]indol-5-yl)methyl) piperidine-1-sulfonamide] | < 1 | < 1
13 | CNS(=O)(=O)c1ccc(Cn2c3ccc(OC)cc3c3ncccc32)cc1 [Compound 7, 4-((8-methoxy-5H-pyrido[3,2-b]indol-5-yl)methyl)-N-methylbenzenesulfonamide] | 1 to 10 | > 10
14 | COc1ccc2c(c1)c1ncccc1n2Cc1ccc(NS(N)(=O)=O)cc1 [Compound 8, N-(4-((8-methoxy-5H-pyrido[3,2-b]indol-5-yl)methyl)phenyl) sulfamide] | < 1 | < 1
15 | COc1ccc2c(c1)c1ncccc1n2CCc1ccc(S(N)(=O)=O)cc1 [Compound 9, 4-(2-(8-methoxy-5H-pyrido[3,2-b]indol-5-yl)ethyl)benzenesulfonamide] | < 1 | > 10
16 | CCS(=N)(=O)c1ccc(Cn2c3ccc(OC)cc3c3ncccc32)cc1 (stereo not drawn) [Compound 11, ethyl (imino) (4-((8-methoxy-5H-pyrido[3,2-b]indol-5-yl)methyl)phenyl)-l6-sulfanone] | < 1 | < 1
17 | COc1ccc2c(c1)c1ncccc1n2Cc1ccc(S(=N)(=O)Cc2ccccc2)cc1 (stereo not drawn) [Compound 12, benzyl(imino)(4-((8-methoxy-5H-pyrido[3,2-b]indol-5-yl)methyl)phenyl)-l6-sulfanone] | < 1 | < 1
18 | COc1ccc2c(c1)c1c(n2Cc2ccc(S(N)(=O)=O)cc2)CNC(C)C1 (stereo not drawn) [Compound 33, 4-((6-methoxy-3-methyl-1,2,3,4-tetrahydro-9H-pyrido[3,4-b]indol-9-yl)methyl)benzene sulfonamide] | > 10 | 
19 | COc1ccc2c(c1)c1c(n2Cc2cccc(S(N)(=O)=O)c2)CCCN1 [Compound 39, 3-((8-methoxy-1,2,3,4-tetrahydro-5H-pyrido[3,2-b]indol-5-yl)methyl)benzenesulfonamide] | > 10 | 
20 | Cc1ccc2c(c1)c1c(n2Cc2ccc(S(N)(=O)=O)cc2)CCCN1 [Compound 40, 4-((8-methyl-1,2,3,4-tetrahydro-5H-pyrido[3,2-b]indol-5-yl)methyl)benzenesulfonamide] | 1 to 10 | 
21 | COc1ccc2c(c1)c1cnncc1n2Cc1ccc(S(N)(=O)=O)cc1 [Compound 50, 4-((8-methoxy-5H-pyridazino[4,5-b]indol-5-yl)methyl)benzenesulfonamide] | 1 to 10 | 
22 | COc1ccc2c(c1F)c1ncccc1n2Cc1ccc(S(N)(=O)=O)cc1 [Compound 54, 4-((9-fluoro-8-methoxy-5H-pyrido[3,2-b]indol-5-yl)methyl)benzenesulfonamide] |  | < 1
23 | COc1ccc2c(c1)c1ncccc1n2Cc1ccc(S(C)(=N)=O)cc1C(F)(F)F (stereo not drawn) [Compound 55, imino (4-((8-methoxy-5H-pyrido[3,2-b]indol-5-yl)methyl)-3-(trifluoromethyl)phenyl)(methyl)-l6-sulfanone] | > 10 | 
